Reference: PMC6378217, “The lysyl oxidase like 2/3 enzymatic inhibitor, PXS‐5153A, reduces crosslinks and ameliorates fibrosis” (Journal of Cellular and Molecular Medicine, 2018)

Columns and labels:
Native human LOX = target: T1, Native human LOX (Homo sapiens, UniProt P28300); experiment: Amplex-Red fluorometric enzymatic activity assay, native human LOX (IMR90 conditioned medium); type: biochemical; details: 30 minute pre-incubation; average of at least three experiments
T1 construct: collecting the 30-kDa LOX in the lower molecular weight portion; host or cells: IMR90 conditioned medium
Method: (§1) The measurement of the enzymatic activity of all lysyl oxidase family members was based on the detection of hydrogen peroxide with an Amplex‐Red oxidation assay, as described in Zhou et al26 Recombinant human semicarbazide sensitive amine oxidase (SSAO/VAP1), diamine oxidase (DAO) and monoamine oxidases A and B (MAO‐A and MAO‐B) assays were performed as previously described.27 For detailed enzymatic procedures, see supporting information.
The measurement of the enzymatic activity of all lysyl oxidase family members was based on the detection of hydrogen peroxide with an Amplex-Red oxidation assay, as described in Zhou et al.[1]; miniaturised in 384 well format, with the appropriate combination of substrate and assay buffer for each individual enzyme. After a 30 minute pre-incubation of the enzyme at 37 °C with the test compound (or with different incubation times for the time-dependency assay), one volume of reaction mixture containing 120 μM Amplex Red (AR) (Life Technologies), 1.5 U/mL horseradish peroxidase (HRP) (Sigma-Aldrich) and the specific substrate was added to each sample. The relative fluorescence units (RFU) were then measured every 2.5 minutes for 30 minutes at 37°C, excitation 565 nm and emission 590, on a BMG Clariostar Microplate Reader. […]

MAO-B = MAO-B (Homo sapiens, UniProt P27338); experiment: MAO-B enzymatic activity assay; type: biochemical
Method: as §1
Recombinant human semicarbazide sensitive amine oxidase (SSAO/VAP1), diamine oxidase (DAO) and monoamine oxidases A and B (MAO-A and MAO-B) assays were performed as previously described.

LOXL2 = target: T2, LOXL2 (Homo sapiens, UniProt Q9Y4K0); experiment: Substrate competition (putrescine), LOXL2; type: biochemical; details: increasing concentrations of the substrate
T2 sequence (Q9Y4K0 26-774): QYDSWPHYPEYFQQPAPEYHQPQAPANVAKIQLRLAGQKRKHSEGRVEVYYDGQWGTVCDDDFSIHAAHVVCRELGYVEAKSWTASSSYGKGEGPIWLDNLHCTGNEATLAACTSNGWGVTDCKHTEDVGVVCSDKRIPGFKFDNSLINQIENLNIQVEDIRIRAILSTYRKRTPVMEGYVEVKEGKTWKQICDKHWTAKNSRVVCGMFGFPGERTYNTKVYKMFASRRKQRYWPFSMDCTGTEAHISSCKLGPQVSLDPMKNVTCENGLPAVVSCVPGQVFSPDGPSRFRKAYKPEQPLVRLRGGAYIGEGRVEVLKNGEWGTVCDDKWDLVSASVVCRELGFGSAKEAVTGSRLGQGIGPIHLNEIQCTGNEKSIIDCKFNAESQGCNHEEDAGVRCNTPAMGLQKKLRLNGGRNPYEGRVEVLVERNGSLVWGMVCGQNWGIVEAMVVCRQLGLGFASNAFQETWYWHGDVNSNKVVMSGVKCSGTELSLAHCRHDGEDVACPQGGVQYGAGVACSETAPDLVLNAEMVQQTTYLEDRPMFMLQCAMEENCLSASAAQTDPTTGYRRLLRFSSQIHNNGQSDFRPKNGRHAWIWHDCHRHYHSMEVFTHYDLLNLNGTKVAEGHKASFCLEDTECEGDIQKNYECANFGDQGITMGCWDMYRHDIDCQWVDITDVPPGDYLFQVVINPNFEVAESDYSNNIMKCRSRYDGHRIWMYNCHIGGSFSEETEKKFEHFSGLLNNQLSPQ
Method: The measurement of the enzymatic activity of all lysyl oxidase family members was based on the detection of hydrogen peroxide with an Amplex-Red oxidation assay, as described in Zhou et al.[1]; miniaturised in 384 well format, with the appropriate combination of substrate and assay buffer for each individual enzyme. After a 30 minute pre-incubation of the enzyme at 37 °C with the test compound (or with different incubation times for the time-dependency assay), one volume of reaction mixture containing 120 μM Amplex Red (AR) (Life Technologies), 1.5 U/mL horseradish peroxidase (HRP) (Sigma-Aldrich) and the specific substrate was added to each sample. The relative fluorescence units (RFU) were then measured every 2.5 minutes for 30 minutes at 37°C, excitation 565 nm and emission 590, on a BMG Clariostar Microplate Reader. All the substrates were used at concentrations corresponding to their Km towards the corresponding enzyme, or with a range of different concentrations for the substrate competition experiments.
The measurement of substrate competition was based on the release of hydrogen peroxide as previously described. The target enzyme was incubated with the inhibitor, and differing concentrations of the substrate (putrescine) in reaction mixture and measured.

Adenosine A2A = Adenosine A2A (Homo sapiens, UniProt P29274); experiment: Eurofins Hit Profiling Screen; type: binding; details: 10 μmol/L
Phorbol Ester = experiment: Eurofins Hit Profiling Screen; type: binding; details: 10 μmol/L
Potassium Channel [KATP] = Potassium Channel [KATP] (Cricetus cricetus, UniProt Q09427); experiment: Eurofins Hit Profiling Screen; type: binding; details: 10 μmol/L
Method: PXS‐5153A was tested at Eurofins Cerep Panlabs Taiwan, Ltd in the “Hit Profiling Screen”, which tested 30 different targets.
Eurofins Hit Profiling Screen, was performed to evaluate the off -target profile of PXS-5153A. Biochemical assay results are presented as the percent inhibition of specific binding or activity.

[1] = Pharmacokinetic study in rats; type: in vivo, Wistar rats; details: rat
Method: Studies were performed by Pharmalegacy (Shanghai, China), GVK (Hyderabad, India) and Sundia, (Shanghai, China), with local ethics approval. Wistar rats were administered PXS‐5153A orally at 10 mg/kg or intravenously at 5 mg/kg, while C57/BL6 mice received PXS‐5153A orally or intravenously at 5 mg/kg. Plasma was analysed for PXS‐5153A by high‐performance liquid chromatography‐mass spectrometry/mass spectrometry (LCMS/MS).

T1 sequence (P28300 169-417): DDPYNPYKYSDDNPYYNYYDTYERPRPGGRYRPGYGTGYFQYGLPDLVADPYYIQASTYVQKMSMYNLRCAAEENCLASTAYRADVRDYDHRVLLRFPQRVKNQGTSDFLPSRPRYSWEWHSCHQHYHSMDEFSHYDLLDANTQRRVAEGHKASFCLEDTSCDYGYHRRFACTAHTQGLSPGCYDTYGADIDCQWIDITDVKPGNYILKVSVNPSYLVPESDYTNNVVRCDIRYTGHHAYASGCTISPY
Sequence of MAO-B (P27338 whole entry): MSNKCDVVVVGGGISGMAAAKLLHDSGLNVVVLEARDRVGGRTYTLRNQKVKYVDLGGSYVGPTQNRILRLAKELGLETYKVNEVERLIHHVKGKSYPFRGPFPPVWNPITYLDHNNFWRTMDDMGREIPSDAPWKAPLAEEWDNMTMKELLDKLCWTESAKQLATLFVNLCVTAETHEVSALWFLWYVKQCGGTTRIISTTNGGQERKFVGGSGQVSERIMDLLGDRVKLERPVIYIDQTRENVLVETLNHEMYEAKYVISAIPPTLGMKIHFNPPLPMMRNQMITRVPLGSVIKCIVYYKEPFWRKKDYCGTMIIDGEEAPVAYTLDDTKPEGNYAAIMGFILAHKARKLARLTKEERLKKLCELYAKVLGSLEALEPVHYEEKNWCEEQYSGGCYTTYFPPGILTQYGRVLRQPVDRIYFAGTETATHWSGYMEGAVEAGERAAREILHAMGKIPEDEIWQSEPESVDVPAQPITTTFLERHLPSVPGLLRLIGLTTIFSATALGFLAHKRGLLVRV
Sequence of Potassium Channel [KATP] (Q09427 whole entry): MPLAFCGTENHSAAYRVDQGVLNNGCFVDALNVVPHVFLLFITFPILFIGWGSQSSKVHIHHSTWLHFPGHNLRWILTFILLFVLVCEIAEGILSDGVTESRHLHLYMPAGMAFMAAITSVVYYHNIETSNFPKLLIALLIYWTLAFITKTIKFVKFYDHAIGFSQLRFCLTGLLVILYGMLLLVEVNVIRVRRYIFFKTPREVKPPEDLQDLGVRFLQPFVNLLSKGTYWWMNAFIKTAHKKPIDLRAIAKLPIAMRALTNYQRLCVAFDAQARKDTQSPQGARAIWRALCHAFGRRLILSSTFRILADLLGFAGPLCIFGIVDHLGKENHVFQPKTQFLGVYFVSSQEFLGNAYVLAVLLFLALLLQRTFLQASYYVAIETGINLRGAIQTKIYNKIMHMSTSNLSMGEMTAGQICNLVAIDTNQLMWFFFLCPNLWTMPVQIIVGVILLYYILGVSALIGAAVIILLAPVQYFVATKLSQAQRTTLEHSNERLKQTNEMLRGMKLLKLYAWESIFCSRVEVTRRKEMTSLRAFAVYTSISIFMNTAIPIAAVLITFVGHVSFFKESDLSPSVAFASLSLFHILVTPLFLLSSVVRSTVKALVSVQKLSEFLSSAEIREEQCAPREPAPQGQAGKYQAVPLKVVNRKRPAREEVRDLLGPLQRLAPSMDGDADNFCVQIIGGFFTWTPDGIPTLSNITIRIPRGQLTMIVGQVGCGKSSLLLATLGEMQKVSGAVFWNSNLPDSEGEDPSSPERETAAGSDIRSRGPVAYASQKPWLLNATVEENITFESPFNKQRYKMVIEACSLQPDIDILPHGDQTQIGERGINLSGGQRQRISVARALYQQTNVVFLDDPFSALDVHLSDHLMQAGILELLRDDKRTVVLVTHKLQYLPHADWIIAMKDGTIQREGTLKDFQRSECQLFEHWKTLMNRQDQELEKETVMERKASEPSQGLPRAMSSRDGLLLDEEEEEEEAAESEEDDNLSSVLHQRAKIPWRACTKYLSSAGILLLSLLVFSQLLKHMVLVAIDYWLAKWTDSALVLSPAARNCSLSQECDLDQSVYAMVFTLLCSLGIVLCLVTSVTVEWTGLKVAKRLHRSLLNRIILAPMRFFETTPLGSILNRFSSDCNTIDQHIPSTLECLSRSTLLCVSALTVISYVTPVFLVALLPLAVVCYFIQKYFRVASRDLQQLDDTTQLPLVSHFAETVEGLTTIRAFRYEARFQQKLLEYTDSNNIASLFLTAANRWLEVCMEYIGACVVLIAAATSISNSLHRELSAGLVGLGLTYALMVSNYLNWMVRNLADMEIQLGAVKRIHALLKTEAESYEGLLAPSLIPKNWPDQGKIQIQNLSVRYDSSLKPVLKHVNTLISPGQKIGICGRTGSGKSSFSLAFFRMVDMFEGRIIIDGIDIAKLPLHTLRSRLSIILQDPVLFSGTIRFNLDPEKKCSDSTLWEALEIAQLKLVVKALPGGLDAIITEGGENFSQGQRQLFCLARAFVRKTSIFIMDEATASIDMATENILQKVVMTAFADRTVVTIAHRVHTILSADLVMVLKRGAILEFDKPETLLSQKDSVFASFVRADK
Sequence of Adenosine A2A (P29274 whole entry): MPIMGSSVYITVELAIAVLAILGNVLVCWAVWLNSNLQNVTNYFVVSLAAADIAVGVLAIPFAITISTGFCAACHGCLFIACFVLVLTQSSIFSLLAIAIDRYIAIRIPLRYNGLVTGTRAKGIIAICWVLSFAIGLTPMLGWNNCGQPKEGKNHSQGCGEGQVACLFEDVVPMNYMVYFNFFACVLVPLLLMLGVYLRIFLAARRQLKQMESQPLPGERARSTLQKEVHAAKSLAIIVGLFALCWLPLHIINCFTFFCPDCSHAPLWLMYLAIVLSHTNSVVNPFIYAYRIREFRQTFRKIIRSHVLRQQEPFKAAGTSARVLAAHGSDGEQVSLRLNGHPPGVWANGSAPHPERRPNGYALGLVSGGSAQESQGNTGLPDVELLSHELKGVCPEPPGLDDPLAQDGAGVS

Cc1c(-c2cccc(S(=O)(=O)N(C)C)c2)c2ncccc2n1C/C(F)=C/CN.Cl.Cl [PXS-5153A]
IC50 (Native human LOX): 1.79 µM
pIC50 ± SD (Native human LOX): 5.7 ± 0.16
IC50 (MAO-B): > 30 µM
substrate competition (LOXL2): in a competitive manner
% inhibition (Adenosine A2A): 0%
% inhibition (Phorbol Ester): 2%
% inhibition (Potassium Channel [KATP]): 8%
Apparent half-life, t1/2 ([1]; intravenous 5 mg/kg): 78 min
Clearance CL ([1]; intravenous 5 mg/kg): 180 mL/min/kg
Time of maximal concentration Tmax ([1]; intravenous 5 mg/kg): 1.8 min
Apparent concentration at curve maximum Cmax ([1]; oral 10 mg/kg): 33 ng/mL
Clearance CL ([1]; oral 10 mg/kg): 2029 mL/min/kg
Time of maximal concentration Tmax ([1]; oral 10 mg/kg): 37.5 min
Bioavailability ([1]; oral 10 mg/kg (i.v. 5 mg/kg)): 10%
